Target: Mcl-1 protein (UniProtKB primary accession number: Q07820) (Homo sapiens, UniProt Q07820)
Assay: Inhibition of Mcl-1 by fluorescence polarisation, Method 1
Type: binding
Conditions: for percentage fluorescence polarisation inhibition, Mcl-1 FP: partial inhibitors; for IC50: fluorescence polarisation, Method 1, or Method 2, read-out: IC50 (M) Mcl-1 FP
In short: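 FP readout of relative binding potency. Mcl-1 5 nM final, fluorescein-labelled ligand 1 nM final; buffer 10 mM HEPES, 150 mM NaCl, 0.05% Tween 20, pH 7.4; 11-pt dilution series, 5% DMSO final.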

Mcl-1 protein, sequence (Q07820 whole entry): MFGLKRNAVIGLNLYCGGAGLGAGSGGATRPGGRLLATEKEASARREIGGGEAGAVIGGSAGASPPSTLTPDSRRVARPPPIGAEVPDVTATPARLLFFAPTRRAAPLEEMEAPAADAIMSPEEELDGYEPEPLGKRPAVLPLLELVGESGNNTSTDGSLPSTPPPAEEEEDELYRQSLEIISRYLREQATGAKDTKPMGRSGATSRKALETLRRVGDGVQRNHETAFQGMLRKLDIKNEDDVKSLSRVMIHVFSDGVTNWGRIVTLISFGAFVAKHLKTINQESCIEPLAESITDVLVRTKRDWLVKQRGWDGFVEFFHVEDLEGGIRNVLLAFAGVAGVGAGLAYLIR

Row | Structure (SMILES) | IC50 | further results
1 | CCOC(=O)[C@@H](Cc1ccccc1OCC(F)(F)F)Oc1ncnc2sc(-c3ccc(F)cc3)c(-c3ccc(OCCN4CCOCC4)c(Cl)c3C)c12 [Example 637, ethyl (2R)-2-{[(5Sa)-5-{3-chloro-2-methyl-4-[2-(morpholin-4-yl)ethoxy]phenyl}-6-(4-fluorophenyl)thieno[2,3-d]pyrimidin-4-yl]oxy}-3-[2-(2,2,2-trifluoroethoxy)phenyl]propanoate] | – | percentage fluorescence polarisation inhibition, Mcl-1 FP (@ 10 uM test compound): 5.9% @ 10 uM
2 | COc1ccccc1C[C@@H](Oc1ncnc2sc(-c3ccc(F)cc3)c(-c3ccc(OCCN4CCN(C)CC4)c(Cl)c3C)c12)C(=O)Oc1ccc2c(c1)CCC2 [Example 640, 2,3-dihydro-1H-inden-5-yl (2R)-2-{[(5Sa)-5-{3-chloro-2-methyl-4-[2-(4-methylpiperazin-1-yl)ethoxy]phenyl}-6-(4-fluorophenyl)thieno[2,3-d]pyrimidin-4-yl]oxy}-3-(2-methoxyphenyl)propanoate] | – | percentage fluorescence polarisation inhibition, Mcl-1 FP (@ 10 uM test compound): 42.4% @ 10 uM
3 | COc1ccccc1CC(Oc1ncnc2sc(-c3ccc(F)cc3)c(-c3ccc(OCCN4CCN(C)CC4)c(Cl)c3C)c12)C(=O)OCC(F)(F)F [Example 641, 2,2,2-trifluoroethyl (2R)-2-{[(5Sa)-5-{3-chloro-2-methyl-4-[2-(4-methylpiperazin-1-yl)ethoxy]phenyl}-6-(4-fluorophenyl)thieno[2,3-d]pyrimidin-4-yl]oxy}-3-(2-methoxyphenyl)propanoate] | 9.6e-07 M | –
4 | CCOC(=O)[C@@H](Cc1ccccc1OC)Oc1ncnc2sc(-c3ccc(F)cc3)c(-c3ccc(OCCN4CCN(C)CC4)c(Cl)c3C)c12 [Example 642, ethyl (2R)-2-{[(5Sa)-5-{3-chloro-2-methyl-4-[2-(4-methylpiperazin-1-yl)ethoxy]phenyl}-6-(4-fluorophenyl)thieno[2,3-d]pyrimidin-4-yl]oxy}-3-(2-methoxyphenyl)propanoate] | – | percentage fluorescence polarisation inhibition, Mcl-1 FP (@ 10 uM test compound): 11% @ 10 uM
5 | Cc1c(-c2c(-c3ccc(F)cc3)sc3ncnc(OC(Cc4ccccc4OCC4CCCO4)C(=O)O)c23)ccc(OCCN2CCN(CCCCN)CC2)c1Cl [Example 645, (2R)-2-{[(5Sa)-5-(4-{2-[4-(4-aminobutyl)piperazin-1-yl]ethoxy}-3-chloro-2-methylphenyl)-6-(4-fluorophenyl)thieno[2,3-d]pyrimidin-4-yl]oxy}-3-{2-[(2R)-tetrahydrofuran-2-ylmethoxy]phenyl}propanoic acid] | 2.2e-08 M | –
6 | COCCCc1ccccc1CC(Oc1ncnc2sc(-c3ccc(F)cc3)c(-c3ccc(OCCN4CCN(C)CC4)c(Cl)c3C)c12)C(=O)O [Example 655, (2R)-2-{[(5Sa)-5-{3-chloro-2-methyl-4-[2-(4-methylpiperazin-1-yl)ethoxy]phenyl}-6-(4-fluorophenyl)thieno[2,3-d]pyrimidin-4-yl]oxy}-3-[2-(3-methoxypropyl)phenyl]propanoic acid] | 2.6e-08 M | –
7 | COc1ccc(-c2c(-c3ccc(F)cc3)sc3ncnc(OC(Cc4ccccc4OCCN(C)C)C(=O)O)c23)c(C)c1Cl [Example 662, (2R)-2-{[(5Sa)-5-(3-chloro-4-methoxy-2-methylphenyl)-6-(4-fluorophenyl)thieno[2,3-d]pyrimidin-4-yl]oxy}-3-{2-[2-(dimethylamino)ethoxy]phenyl}propanoic acid] | 2.7e-07 M | –
8 | Cc1c(Cl)cccc1-c1c(-c2ccco2)sc2ncnc(OC(Cc3ccccc3OCCN3CCN(C)CC3)C(=O)O)c12 [Example 666, (2R)-2-{[(5Sa)-5-(3-chloro-2-methylphenyl)-6-(furan-2-yl)thieno[2,3-d]pyrimidin-4-yl]oxy}-3-{2-[2-(4-methylpiperazin-1-yl)ethoxy]phenyl}propanoic acid] | 7.7e-08 M | –
9 | Cc1c(Cl)cccc1-c1c(-c2ccco2)sc2ncnc(OC(Cc3ccccc3OCCN3CCN(C)CC3)C(=O)O)c12 [Example 667, (2S)-2-{[(5Ra)-5-(3-chloro-2-methylphenyl)-6-(furan-2-yl)thieno[2,3-d]pyrimidin-4-yl]oxy}-3-{2-[2-(4-methylpiperazin-1-yl)ethoxy]phenyl}propanoic acid] | 2.1e-06 M | –
10 | Cc1c(-c2c(-c3ccco3)sc3ncnc(OC(Cc4ccccc4OCc4ccccn4)C(=O)O)c23)ccc(O)c1Cl [Example 674, (2R)-2-{[(5Sa)-5-(3-chloro-4-hydroxy-2-methylphenyl)-6-(furan-2-yl)thieno[2,3-d]pyrimidin-4-yl]oxy}-3-[2-(pyridin-2-ylmethoxy)phenyl]propanoic acid] | 2.1e-08 M | –
11 | CC#Cc1sc2ncnc(O[C@H](Cc3ccccc3OC)C(=O)O)c2c1-c1ccc(OCCN2CCN(C)CC2)c(F)c1C [Example 686, (2R)-2-{[(5Ra)-5-{3-fluoro-2-methyl-4-[2-(4-methylpiperazin-1-yl)ethoxy]phenyl}-6-(prop-1-yn-1-yl)thieno[2,3-d]pyrimidin-4-yl]oxy}-3-(2-methoxyphenyl)propanoic acid] | 1e-06 M | –
12 | COc1nccc(COc2ccccc2C[C@@H](Oc2ncnc3sc(-c4ccc(F)c(OCCN5CCN(C)CC5)c4)c(-c4ccc(OC)c(Cl)c4C)c23)C(=O)O)n1 [Example 697, (2R)-2-{[(5Ra)-5-(3-chloro-4-methoxy-2-methylphenyl)-6-{4-fluoro-3-[2-(4-methylpiperazin-1-yl)ethoxy]phenyl}thieno[2,3-d]pyrimidin-4-yl]oxy}-3-{2-[(2-methoxypyrimidin-4-yl)methoxy]phenyl}propanoic acid] | – | percentage fluorescence polarisation inhibition, Mcl-1 FP (@ 1 uM test compound): 45.55% @ 1 uM
13 | COc1nccc(COc2ccccc2C[C@@H](Oc2ncnc3sc(-c4ccc(F)c(OCCN5CCOCC5)c4)c(-c4ccc(OC)c(Cl)c4C)c23)C(=O)O)n1 [Example 699, (2R)-2-{[(5Ra)-5-(3-chloro-4-methoxy-2-methylphenyl)-6-{4-fluoro-3-[2-(morpholin-4-yl)ethoxy]phenyl}thieno[2,3-d]pyrimidin-4-yl]oxy}-3-{2-[(2-methoxypyrimidin-4-yl)methoxy]phenyl}propanoic acid] | – | percentage fluorescence polarisation inhibition, Mcl-1 FP (@ 1 uM test compound): 28.5% @ 1 uM
14 | COc1nccc(COc2ccccc2C[C@@H](Oc2ncnc3sc(-c4ccc(F)c(OCCN(C)C)c4)c(-c4ccc(OC)c(Cl)c4C)c23)C(=O)O)n1 [Example 701, (2R)-2-{[(5Ra)-5-(3-chloro-4-methoxy-2-methylphenyl)-6-{3-[2-(dimethylamino)ethoxy]-4-fluorophenyl}thieno[2,3-d]pyrimidin-4-yl]oxy}-3-{2-[(2-methoxypyrimidin-4-yl)methoxy]phenyl}propanoic acid] | – | percentage fluorescence polarisation inhibition, Mcl-1 FP (@ 1 uM test compound): 40.75% @ 1 uM

More lines, main results first:

Row | IC50 | Structure (SMILES) | further results
15 | 1.4e-08 M | Cc1c(-c2c(-c3ccc(F)cc3)sc3ncnc(OC(Cc4ccccc4OCC4CCCO4)C(=O)O)c23)ccc(OCCN2CCOCC2)c1Cl [Example 648, (2R)-2-{[(5Sa)-5-{3-chloro-2-methyl-4-[2-(morpholin-4-yl)ethoxy]phenyl}-6-(4-fluorophenyl)thieno[2,3-d]pyrimidin-4-yl]oxy}-3-{2-[(2R)-tetrahydrofuran-2-ylmethoxy]phenyl}propanoic acid] | –
16 | 2.1e-08 M | Cc1c(-c2c(-c3ccc(F)cc3)sc3ncnc(OC(Cc4ccccc4OCC(F)(F)F)C(=O)O)c23)ccc(OCCN2CCOCC2)c1Cl [Example 657, (2R)-2-{[(5Sa)-5-{3-chloro-2-methyl-4-[2-(morpholin-4-yl)ethoxy]phenyl}-6-(4-fluorophenyl)thieno[2,3-d]pyrimidin-4-yl]oxy}-3-[2-(2,2,2-trifluoroethoxy)phenyl]propanoic acid] | –
17 | 5.1e-08 M | COc1ccc(-c2c(-c3ccc(F)cc3)sc3ncnc(OC(Cc4ccccc4OCc4ccnc(N(C)C)n4)C(=O)O)c23)c(C)c1Cl [Example 660, (2R)-2-{[(5Sa)-5-(3-chloro-4-methoxy-2-methylphenyl)-6-(4-fluorophenyl)thieno[2,3-d]pyrimidin-4-yl]oxy}-3-(2-{[2-(dimethylamino)pyrimidin-4-yl]methoxy}phenyl)propanoic acid] | –
18 | 1e-07 M | COc1ccc(-c2c(-c3ccc(F)cc3)sc3ncnc(OC(Cc4ccccc4OCCN4CCN(C)CC4)C(=O)O)c23)c(C)c1Cl [Example 661, (2R)-2-{[(5Sa)-5-(3-chloro-4-methoxy-2-methylphenyl)-6-(4-fluorophenyl)thieno[2,3-d]pyrimidin-4-yl]oxy}-3-{2-[2-(4-methylpiperazin-1-yl)ethoxy]phenyl}propanoic acid] | –
19 | 2.5e-08 M | COc1ccc(-c2c(-c3ccc(F)cc3)sc3ncnc(OC(Cc4ccccc4OCc4ccnn4CCN(C)C)C(=O)O)c23)c(C)c1Cl [Example 663, (2R)-2-{[(5Sa)-5-(3-chloro-4-methoxy-2-methylphenyl)-6-(4-fluorophenyl)thieno[2,3-d]pyrimidin-4-yl]oxy}-3-[2-({1-[2-(dimethylamino)ethyl]-1H-pyrazol-5-yl}methoxy)phenyl]propanoic acid] | –
20 | 1.2e-08 M | CC#Cc1sc2ncnc(OC(Cc3ccccc3OC)C(=O)O)c2c1-c1ccc(OCCN2CCOCC2)c(Cl)c1C [Example 685, (2R)-2-{[(5Sa)-5-{3-chloro-2-methyl-4-[2-(morpholin-4-yl)ethoxy]phenyl}-6-(prop-1-yn-1-yl)thieno[2,3-d]pyrimidin-4-yl]oxy}-3-(2-methoxyphenyl)propanoic acid] | –
21 | 7.3e-09 M | COc1nccc(COc2ccccc2CC(Oc2ncnc3sc(-c4ccc(F)c(OCCN5CCN(C)CC5)c4)c(-c4ccc(OC)c(Cl)c4C)c23)C(=O)O)n1 [Example 698, (2R)-2-{[(5Sa)-5-(3-chloro-4-methoxy-2-methylphenyl)-6-{4-fluoro-3-[2-(4-methylpiperazin-1-yl)ethoxy]phenyl}thieno[2,3-d]pyrimidin-4-yl]oxy}-3-{2-[(2-methoxypyrimidin-4-yl)methoxy]phenyl}propanoic acid] | –
22 | 1.2e-08 M | COc1nccc(COc2ccccc2CC(Oc2ncnc3sc(-c4ccc(F)c(OCCN5CCOCC5)c4)c(-c4ccc(OC)c(Cl)c4C)c23)C(=O)O)n1 [Example 700, (2R)-2-{[(5Sa)-5-(3-chloro-4-methoxy-2-methylphenyl)-6-{4-fluoro-3-[2-(morpholin-4-yl)ethoxy]phenyl}thieno[2,3-d]pyrimidin-4-yl]oxy}-3-{2-[(2-methoxypyrimidin-4-yl)methoxy]phenyl}propanoic acid] | –

Reference: patent US9670227B2, “Thienopyrimidine derivatives, a process for their preparation and pharmaceutical compositions containing them” (LES LABORATOIRES SERVIER, priority 2013, dated 2017)
